The results in this text go back to patent US9751876B2, “Bicyclic heterocycle derivatives for the treatment of pulmonary arterial hypertension” (Novartis AG, priority 2011, dated 2017).

Structures can show the parent of a compound that is named as a salt.

The IC50 is the concentration that inhibits the measured activity by half.

The test system of this assay is PDGFR. The assay can be described thus: Rat A10 cell proliferation assay. In kind it is cell-based. Conditions: Rat A10 cells, 1% FBS, 10 ng/mL recombinant rat PDGF-BB, 68 hours with compound, CellTiter-Glo luminescence. On the procedure:
Compounds of Formula (I), (II) or (III) provided herein were assayed to measure their capacity to inhibit PDGFR kinases using the appropriate assay described below: PDGFR inhibition was evaluated using the Rat A10 cell proliferation.
Rat A10 Cell Proliferation Assay
Rat A10 cells (ATCC) were resuspended in DMEM supplemented with 1% FBS and 10 ng/mL recombinant rat PDGF-BB at 20,000 cells/mL. The cells were aliquoted into 384 well plates at 50 μL/well and incubated for 4 hours at 37° C. […] The plates were returned to the incubator for a further 68 hours. 25 μL of CellTiter-Glo (Promega) was added to each well and the plates were incubated on the bench for 15 minutes. Luminescence was then read using a CLIPR CCD camera (Molecular Devices).
Data were analysed using non-linear regression fitted to sigmoidal (variable slope) curves using a four parameter logistic equation to generate IC50 values for each compound.
Turning to `CN1CCN(c2ccccc2CNC(=O)c2ccc(F)c(NC(=O)c3cnc4cc(-c5ccc(C(=O)NCCO)c(F)c5)ccn34)c2)CC1` [Example 1.2, 7-(3-Fluoro-4-(2-hydroxyethylcarbamoyl)phenyl)-N-(2-fluoro-5-(2-(4-methylpiperazin-1-yl)benzylcarbamoyl)phenyl)imidazo[1,2-a]pyridine-3-carboxamide], the IC50 amounted to 40 nM.
Under `CN(C)CCCOc1ccc(-c2ccn3c(C(=O)Nc4cc(C(=O)NCc5ccc(F)c(F)c5)ccc4F)cnc3c2)cn1` [Example 1.9, N-(5-(3,4-difluorobenzylcarbamoyl)-2-fluorophenyl)-7-(6-(3-(dimethylamino)propoxy)pyridine-3-yl)imidazo[1,2-a]pyridine-3-carboxamide] stands 11 nM; under `C[C@@H]1CCC[C@H](C)N1CCNC(=O)c1ccc(F)c(NC(=O)c2cnc3cc(-c4cccnc4)ccn23)c1` [Example 1.16, 1-(2-(4-fluoro-3-(7-(pyridine-3-yl)imidazo[1,2-a]pyridine-3-carboxamido)benzamido)ethyl)-2,6-cis-dimethylpiperidinium chloride], 27 nM.
For the compound `Cc1ncc(C(=O)NCc2ccccc2N2CCN(C)CC2)cc1NC(=O)c1cnc2cc(-c3ccnn3C)ccn12` [Example 1.19, 1-methyl-4-(2-((6-methyl-5-(7-(1-methyl-1H-pyrazol-5-yl)imidazo[1,2-a]pyridine-3-carboxamido)nicotinamido)methyl)phenyl)piperazin-1-ium chloride], the IC50 was determined as 74 nM.
The value for `C[C@@H]1CCC[C@H](C)N1CCNC(=O)c1ccc(F)c(NC(=O)c2cnc3cc(-c4cnn(C)c4)ccn23)c1` [Example 1.20, 7-(1-Methyl-1H-pyrazol-4-yl)-imidazo[1,2-a]pyridine-3-carboxylic acid {5-[2-(2,6-cis-dimethyl-piperidin-1-yl)-ethylcarbamoyl]-2-fluoro-phenyl}-amide hydrochloride] was 13 nM; that for `CN(C)CCCOc1ccc(-c2ccn3c(C(=O)Nc4cc(C(=O)NCCOC(C)(C)C)ccc4F)cnc3c2)cn1` [Example 2.1, N-(5-(2-tert-Butoxyethylcarbamoyl)-2-fluorophenyl)-7-(6-(3-(dimethylamino)propoxy)pyridin-3-yl)imidazo[1,2-a]pyridine-3-carboxamide] was 3 nM; that for `COCCN(C)Cc1cncc(-c2ccn3c(C(=O)Nc4cc(C(=O)NC[C@H]5CCC(C)(C)O5)ccc4F)cnc3c2)c1` [Example 2.6, (R)-N-(5-(((5,5-dimethyltetrahydrofuran-2-yl)methyl)carbamoyl)-2-fluorophenyl)-7-(5-(((2-methoxyethyl)(methyl)amino)methyl)pyridin-3-yl)imidazo[1,2-a]pyridine-3-carboxamide] was 16 nM.
Under `O=C(NCc1ccc(F)c(F)c1)c1ccc(F)c(NC(=O)c2cnc3cc(-c4ccc(OCCN5CCCC5)nc4)ccn23)c1` [Example 3.1, N-(5-(3,4-Difluorobenzylcarbamoyl)-2-fluorophenyl)-7-(6-(2-(pyrrolidin-1-yl)ethoxy)pyridin-3-yl)imidazo[1,2-a]pyridine-3-carboxamide hydrochloride] stands 13 nM.
For `CC(C)(C)OCCNC(=O)c1ccc(F)c(NC(=O)c2cnc3cc(-c4ccc(OCCN5CCCC5)nc4)ccn23)c1` [Example 3.2, N-(5-((2-(tert-Butoxy)ethyl)carbamoyl)-2-fluorophenyl)-7-(6-(2-(pyrrolidin-1-yl)ethoxy)pyridin-3-yl)imidazo[1,2-a]pyridine-3-carboxamide], the half-maximal inhibitory concentration (IC50) came to 15 nM.
Regarding `CN1CCC(Oc2ccc(-c3ccn4c(C(=O)Nc5cc(C(=O)NCC6CCC(C)(C)O6)ccc5F)cnc4c3)cn2)CC1` (stereo not drawn) [Example 3.3, N-(5-(((5,5-dimethyltetrahydrofuran-2-yl)methyl)carbamoyl)-2-fluorophenyl)-7-(6-((1-methylpiperidin-4-yl)oxy)pyridin-3-yl)imidazo[1,2-a]pyridine-3-carboxamide], the concentration for half-maximal inhibition (IC50) was determined as 10 nM.
With `Cc1ccc(C(=O)NCc2ccccc2N2CCN(C)CC2)cc1NC(=O)c1cnn2cc(-c3ccnn3C)ccc12` [Example 4.1, 6-(1-Methyl-1H-pyrazol-5-yl)-N-(2-methyl-5-(2-(4-methylpiperazin-1-yl)benzylcarbamoyl)phenyl)pyrazolo[1,5-a]pyridine-3-carboxamide hydrochloride], the IC50 turned out to be 12 nM.
The value for `CC(C)(O)CCc1ccn2c(C(=O)Nc3cc(C(=O)NCc4ccc(F)c(F)c4)ccc3F)cnc2c1` [Example 6.1, N-(5-(3,4-Difluorobenzylcarbamoyl)-2-fluorophenyl)-7-(3-hydroxy-3-methylbutyl)imidazo[1,2-a]pyridine-3-carboxamide] was 41 nM.
Under `CC(C)(CO)NC(=O)c1ccc(-c2ccn3c(C(=O)Nc4cc(C(=O)NCCN5CCCC5(C)C)ccc4F)cnc3c2)cc1F` [Example 7.5, N-(5-(2-(2,2-Dimethylpyrrolidin-1-yl)ethylcarbamoyl)-2-fluorophenyl)-7-(3-fluoro-4-(1-hydroxy-2-methylpropan-2-ylcarbamoyl)phenyl)imidazo[1,2-a]pyridine-3-carboxamide] stands 8 nM.
The value for `Cc1ncc(C(=O)NCCN2CCCC2(C)C)cc1NC(=O)c1cnn2cc(-c3ccc(C(=O)NC(C)(C)CO)c(F)c3)ccc12` [Example 7.6, N-(5-(2-(2,2-Dimethylpyrrolidin-1-yl)ethylcarbamoyl)-2-methylpyridin-3-yl)-6-(3-fluoro-4-(1-hydroxy-2-methylpropan-2-ylcarbamoyl)phenyl)pyrazolo[1,5-a]pyridine-3-carboxamide] was 182 nM; that for `O=C(NCc1ccc(F)c(F)c1)c1ccc(F)c(NC(=O)c2cnc3cc(-c4ccc(C(=O)NCCCN5CCOCC5)c(F)c4)ccn23)c1` [Example 8.1, N-(5-(3,4-Difluorobenzylcarbamoyl)-2-fluorophenyl)-7-(3-fluoro-4-(3-morpholinopropylcarbamoyl)phenyl)imidazo[1,2-a]pyridine-3-carboxamide hydrochloride] was 4 nM.
Turning to `C[C@@H]1CCC[C@H](C)N1CCNC(=O)c1ccc(F)c(NC(=O)c2cnc3cc(-c4ccc(C(=O)NC(C)(C)CO)c(F)c4)ccn23)c1` [Example 8.2, N-(5-(2-(2,6-cis-Dimethylpiperidin-1-yl)ethylcarbamoyl)-2-fluorophenyl)-7-(3-fluoro-4-(1-hydroxy-2-methylpropan-2-ylcarbamoyl)phenyl)imidazo[1,2-a]pyridine-3-carboxamide], the IC50 was 8 nM.
Under `CN1CCN(c2ccccc2CNC(=O)c2ccc(F)c(NC(=O)c3cnc4cc(-c5cc(F)cc(C(=O)NCCO)c5)ccn34)c2)CC1` [Example 8.4, N-(2-Fluoro-5-(2-(4-methylpiperazin-1-yl)benzylcarbamoyl)phenyl)-7-(3-fluoro-5-(2-hydroxyethylcarbamoyl)phenyl)imidazo[1,2-a]pyridine-3-carboxamide] stands 112 nM; under `CCCC1CCN(CCNC(=O)c2ccc(F)c(NC(=O)c3cnc4cc(-c5cnn(C)c5)ccn34)c2)C1` (stereo not drawn) [Example 9.2, N-(2-Fluoro-5-((2-(3-propylpyrrolidin-1-yl)ethyl)carbamoyl)phenyl)-7-(1-methyl-1H-pyrazol-4-yl)imidazo[1,2-a]pyridine-3-carboxamide], 11 nM; under `CC1CC(C)CN(CCNC(=O)c2ccc(F)c(NC(=O)c3cnc4cc(-c5cnn(C)c5)ccn34)c2)C1` (stereo not drawn) [Example 9.4, N-(5-((2-(3,5-Dimethylpiperidin-1-yl)ethyl)carbamoyl)-2-fluorophenyl)-7-(1-methyl-1H-pyrazol-4-yl)imidazo[1,2-a]pyridine-3-carboxamide], 128 nM.
Under `Cc1ncc(C(=O)NCCN2CCCCC2(C)C)cc1NC(=O)c1cnn2cc(-c3cnn(C)c3)ccc12` [Example 9.13, N-(5-((2-(2,2-Dimethylpiperidin-1-yl)ethyl)carbamoyl)-2-methylpyridin-3-yl)-6-(1-methyl-1H-pyrazol-4-yl)pyrazolo[1,5-a]pyridine-3-carboxamide] stands 7 nM; under `CC[C@@H]1CN(CCNC(=O)c2ccc(F)c(NC(=O)c3cnc4cc(-c5cnn(C)c5)ccn34)c2)[C@H]1CC` [Example 9.15, N-(5-((2-((2S,3R)-2,3-diethylazetidin-1-yl)ethyl)carbamoyl)-2-fluorophenyl)-7-(1-methyl-1H-pyrazol-4-yl)imidazo[1,2-a]pyridine-3-carboxamide], 2 nM.
